Assay results as given in US11730720B2, “ALK5 inhibitors” (THERAVANCE BIOPHARMA R&D IP, LLC, priority 2018, dated 2023).

What was measured:
[1] = molecular target: T1, recombinant human ALK5 (TGF-βR1) protein (Homo sapiens, UniProt P36897); experiment: Biochemical ALK5 (TGF-βR1) assay to measure pKi (LANCE Ultra ULight kinase assay); details: apparent pKi, converted from pIC50 using the Cheng-Prusoff equation
T1 construct: purchased Life Technologies PR9075A
T1 sequence (P36897 34-503): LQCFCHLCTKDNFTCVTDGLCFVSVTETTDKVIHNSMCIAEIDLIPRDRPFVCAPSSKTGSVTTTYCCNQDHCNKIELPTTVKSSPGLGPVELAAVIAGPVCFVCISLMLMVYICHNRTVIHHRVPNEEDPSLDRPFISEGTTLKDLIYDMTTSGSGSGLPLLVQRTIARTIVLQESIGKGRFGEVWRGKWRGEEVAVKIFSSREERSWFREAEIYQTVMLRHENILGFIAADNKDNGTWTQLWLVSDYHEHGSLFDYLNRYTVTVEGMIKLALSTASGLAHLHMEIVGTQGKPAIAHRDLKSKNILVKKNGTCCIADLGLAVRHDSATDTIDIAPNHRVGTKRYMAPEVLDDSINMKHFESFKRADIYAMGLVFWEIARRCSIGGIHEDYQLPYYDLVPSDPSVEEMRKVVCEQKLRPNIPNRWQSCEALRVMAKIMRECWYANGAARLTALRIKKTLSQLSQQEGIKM
Procedure: Example 254: Biochemical ALK5 (TGF-βR1) Assay to Measure pKi
The assays were performed in a 384-well plate (24 columns×16 wells/rows). An Echo® 550 Liquid Handler (Labcyte) was used to prepare various intermediate concentrations of compounds of the present disclosure in 100% DMSO. From the intermediate concentrations, a range of concentrations (from 10 μM to 25 pM corresponding to volumes up to 105 nL) were prepared and ejected into a final assay plate to be used to create individual dose response curves for each of the subject compounds. To a separate column within the assay plate, 105 nL of DMSO in each well was used to establish a maximum assay signal. Additionally, 105 nL of 100 μM SD-208, a selective TGF-βR1 inhibitor (Catalog #S7624, Selleck Chemicals), was used in another column of wells to establish a minimal assay signal.
With a multidrop dispenser, 8 μL of enzyme mixture (1.25× final) was added to each well. The enzyme mixture consisted of 250 pM ALK5 enzyme and 62.5 nM peptide substrate (LANCE® (lanthanide chelate excite) Ultra ULight™-DNA Topoisomerase 2-alpha (Thr1342)) prepared in assay buffer (50 mM HEPES, 10 mM MgCl2, 1 mM EGTA, 0.01% Tween-20, pH 7.5 at room temperature) with 2 mM DTT added prior to use. The plate was then sealed with an adhesive seal and allowed to equilibrate for 60 minutes at room temperature.
Next, 2 μL of 125 μM ATP (5× final, 125 μM ATP prepared in assay buffer with 2 mM DTT) was added to the incubated mixtures, covered with a MicroClime® Environmental Lid (Product No. LLS-0310, Labcyte) and immediately transferred to 37° C. The reactions were allowed to proceed at 37° C. for 60 minutes before terminating with the addition of 10 μL of detection antibody (LANCE® (lanthanide chelate excite) Ultra Europium-anti-phospo-DNA Topoisomerase 2-alpha (Thr1342)) in detection mixture (12 mM EDTA, 4 nM detection antibody prepared in detection buffer (50 mM Tris-HCl, 150 mM NaCl, 0.5% BSA (Fraction V), pH 7.0)) at room temperature. The plate was then read on a Perkin Elmer EnVision Plate Reader using europium specific reader settings with excitation and emission wavelengths set to 320 or 340 nm and 665 nm, respectively.
For dose-response analyses, percent inhibition versus compound concentrations were plotted, and pIC50 values were determined from a 4-parameter robust fit model with GraphPad Prism V5 Software (GraphPad Software, Inc., La Jolla, Calif.). This model obtains pIC50 values by fitting the sigmodial dose-response (variable slope) equation to the data. Results were expressed as pIC50 (negative logarithm of IC50) and subsequently converted to pKi (negative logarithm of dissociate constant, K) using the Cheng-Prusoff equation.
The higher the value of pKi (lower value of Ki), the greater the inhibition of ALK5 activity.

[2] = system: TGF-β-stimulated SMAD3 phosphorylation in BEAS-2B cells; experiment: Cellular ALK5 potency assay, inhibition of TGF-β stimulated pSMAD3 formation in BEAS-2B cells; format: cell-based; details: Homo sapiens, inhibition of TGF-β (10 ng/mL) stimulated pSMAD3 formation, 1 hour compound incubation, read-out: BEAS2B pIC50 (converted)
Procedure: Example 255: Cellular ALK5 Potency Assay to Measure pIC50, Inhibition of TGF-β Stimulated pSMAD3 Formation in BEAS-2B Cells
The potency of compounds of the present disclosure for inhibition of TGF-β-stimulated SMAD3 phosphorylation was measured in BEAS-2B cells, a human lung epithelial cell line. TGF-β signals through activin receptor-like kinase 5 (ALK5) immediately prior to SMAD3 phosphorylation.
BEAS-2B cells were grown using 50% DMEM (Life Technologies) and 50% F-12 (Life Technologies) media, supplemented with 10% Fetal Bovine Serum (ATCC), 25 mM HEPES (Life Technologies), and 1×Pen-Strep (Life Technologies). Cells were cultured in a humidified incubator set at 37° C., 5% CO2, and trypsonized using 0.25% Trypsin with 0.5% polyvinylpyrrolidone (PVP).
For the assay, BEAS-2B cells were seeded at 7,500 cells/well (25 μL/well) in a 384-well plate and cultured overnight. Before dosing, growth media was aspirated and the wells were rinsed with HBSS Buffer (HBSS with Calcium and Magnesium, Life Technologies) supplemented with 25 mM HEPES (Life Technologies) and 1% Bovine Serum Albumin (Roche). Compounds were serially diluted in DMSO, then further diluted with supplemented HBSS Buffer (50 μL/well) to create a compound plate 3× of the final assay concentration, at 0.3% DMSO. The diluted compounds were then added to the cells (8 μL/well) and incubated at 37° C., 5% CO2 for 1 hour. After the compound incubation, TGF-β (R&D Systems) reconstituted in supplemented HBSS Buffer was added to the cells ([…], final concentration 10 ng/mL) and incubated for a further 30 minutes, after which the cells were immediately lysed with AlphaLISA lysis buffer (PerkinElmer). AlphaLISA Acceptor and Detector beads (PerkinElmer) were added 2 hours apart, then incubated overnight to be read the next day. The potency of the compound was determined through analysis of dose-dependent quantified changes in pSMAD3 signal from baseline (non-compound treated TGF-β stimulated cells). Data are expressed as pIC50 (negative decadic logarithm IC50) values.

SMILES | Ki [1] | IC50 [2]
CN(C)C1CCN(c2cnc3ccc(-c4c[nH]nc4-c4cc(Cl)ccc4F)nc3c2)C1 (racemic) [Compound 1-34, rac-(3S)-1-[6-[3-(5-chloro-2-fluoro-phenyl)-1H-pyrazol-4-yl]-1,5-naphthyridin-3-yl]-N,N-dimethyl-pyrrolidin-3-amine] | ≤ 0.0316 nM | 25.1 to 158 nM
Fc1ccc(Cl)cc1-c1n[nH]cc1-c1ccc2ncc(N3CCC(N4CCCCC4)C3)cc2n1 (racemic) [Compound 1-39, 2-[3-(5-chloro-2-fluoro-phenyl)-1H-pyrazol-4-yl]-7-[rac-(3R)-3-(1-piperidyl)pyrrolidin-1-yl]-1,5-naphthyridine] | 0.0398 to 0.316 nM | ≤ 20 nM
CN1C[C@H]2C[C@@H]1CN2c1cnc2ccc(-c3c[nH]nc3-c3cc(Cl)ccc3F)nc2c1 (racemic) [Compound 1-42, 2-[3-(5-chloro-2-fluoro-phenyl)-1H-pyrazol-4-yl]-7-[rac-(1R,4R)-5-methyl-2,5-diazabicyclo[2.2.1]heptan-2-yl]-1,5-naphthyridine] | 3.98 to 31.6 nM | 25.1 to 158 nM
NC(=O)C1CN(c2cnc3ccc(-c4c[nH]nc4-c4cc(Cl)ccc4F)nc3c2)CCN1 (racemic) [Compound 1-50, rac-(2S)-4-[6-[3-(5-chloro-2-fluoro-phenyl)-1H-pyrazol-4-yl]-1,5-naphthyridin-3-yl]piperazine-2-carboxamide] | 0.398 to 3.16 nM | 25.1 to 158 nM
CNC(=O)C1CN(c2cnc3ccc(-c4c[nH]nc4-c4cc(Cl)ccc4F)nc3c2)CCN1 (racemic) [Compound 1-51, rac-(2R)-4-[6-[3-(5-chloro-2-fluoro-phenyl)-1H-pyrazol-4-yl]-1,5-naphthyridin-3-yl]-N-methyl-piperazine-2-carboxamide] | 0.0398 to 0.316 nM | 25.1 to 158 nM
C[C@@H]1CN(c2cnc3ccc(-c4c[nH]nc4-c4cc(Cl)ccc4F)nc3c2)[C@H](C)CN1C (racemic) [Compound 1-75, 2-[3-(5-chloro-2-fluoro-phenyl)-1H-pyrazol-4-yl]-7-[rac-(2R,5R)-2,4,5-trimethylpiperazin-1-yl]-1,5-naphthyridine] | 3.98 to 31.6 nM | 25.1 to 158 nM
CNC(=O)C1CN(c2cnc3ccc(-c4c[nH]nc4-c4cc(Cl)ccc4F)nc3c2)CCN1C (racemic) [Compound 1-77, rac-(2R)-4-[6-[3-(5-chloro-2-fluoro-phenyl)-1H-pyrazol-4-yl]-1,5-naphthyridin-3-yl]-N,1-dimethyl-piperazine-2-carboxamide] | 0.0398 to 0.316 nM | 25.1 to 158 nM
CNC(=O)C1CN(c2cnc3ccc(-c4c[nH]nc4-c4cc(Cl)ccc4F)nc3c2)CCN1C(C)C (racemic) [Compound 1-78, rac-(2R)-4-[6-[3-(5-chloro-2-fluoro-phenyl)-1H-pyrazol-4-yl]-1,5-naphthyridin-3-yl]-1-isopropyl-N-methyl-piperazine-2-carboxamide] | 0.0398 to 0.316 nM | 25.1 to 158 nM
CN1CCC(N(C)c2cnc3ccc(-c4c[nH]nc4-c4cc(Cl)ccc4F)nc3c2)C1 (racemic) [Compound 1-79, 6-[3-(5-chloro-2-fluoro-phenyl)-1H-pyrazol-4-yl]-N-methyl-N-[rac-(3R)-1-methylpyrrolidin-3-yl]-1,5-naphthyridin-3-amine] | 0.0398 to 0.316 nM | ≤ 20 nM
COCC1CN(c2cnc3ccc(-c4c[nH]nc4-c4cc(Cl)ccc4F)nc3c2)CCN1C (racemic) [Compound 1-80, 2-[3-(5-chloro-2-fluoro-phenyl)-1H-pyrazol-4-yl]-7-[rac-(3R)-3-(methoxymethyl)-4-methyl-piperazin-1-yl]-1,5-naphthyridine] | 0.398 to 3.16 nM | 25.1 to 158 nM
CNC(=O)C1CN(c2cnc3ccc(-c4c[nH]nc4-c4cc(Cl)ccc4F)nc3c2)CCN1C (racemic) [Compound 1-81, rac-(2S)-4-[6-[3-(5-chloro-2-fluoro-phenyl)-1H-pyrazol-4-yl]-1,5-naphthyridin-3-yl]-N,1-dimethyl-piperazine-2-carboxamide] | 0.398 to 3.16 nM | –
CC(C)N1CCCN(c2cnc3ccc(-c4c[nH]nc4-c4cc(Cl)ccc4F)nc3c2)CC1C (racemic) [Compound 1-82, 2-[3-(5-chloro-2-fluoro-phenyl)-1H-pyrazol-4-yl]-7-[rac-(3S)-4-isopropyl-3-methyl-1,4-diazepan-1-yl]-1,5-naphthyridine] | 0.398 to 3.16 nM | 25.1 to 158 nM

More lines, main results first:

Ki [1] | SMILES | IC50 [2]
0.0398 to 0.316 nM | CN(C)C1CCN(c2cnc3ccc(-c4nc[nH]c4-c4cc(Cl)ccc4F)nc3c2)C1 (racemic) [Compound 2-11, rac-(3S)-1-(6-[5-(5-chloro-2-fluoro-phenyl)-1H-imidazol-4-yl]-1,5-naphthyridin-3-yl]-N,N-dimethyl-pyrrolidin-3-amine] | ≤ 20 nM
0.0398 to 0.316 nM | CN(C)C1CCN(c2cnc3ccc(-c4c(-c5cc(Cl)ccc5F)nc5ccccn45)nc3c2)C1 (racemic) [Compound 3-4, rac-(3S)-1-[6-[2-(5-chloro-2-fluoro-phenyl)imidazo[1,2-a]pyridin-3-yl]-1,5-naphthyridin-3-yl]-N,N-dimethyl-pyrrolidin-3-amine] | 200 to 1260 nM
0.0398 to 0.316 nM | Fc1cc(F)c(-c2n[nH]cc2-c2ccc3ncc(N4CCC(N5CCCCC5)C4)cc3n2)cc1Cl (racemic) [Compound 6-21, 2-[3-(5-chloro-2,4-difluoro-phenyl)-1H-pyrazol-4-yl]-7-[rac-(3R)-3-(1-piperidyl)pyrrolidin-1-yl]-1,5-naphthyridine] | 25.1 to 158 nM
0.0398 to 0.316 nM | CN(C)C1CCN(c2cnc3ccc(-c4c[nH]nc4-c4cc(Cl)c(F)cc4F)nc3c2)C1 (racemic) [Compound 6-22, rac-(3S)-1-[6-[3-(5-chloro-2,4-difluoro-phenyl)-1H-pyrazol-4-yl]-1,5-naphthyridin-3-yl]-N,N-dimethyl-pyrrolidin-3-amine] | 25.1 to 158 nM
